Patent US20080318838A1, “PEPTIDES” (priority 1992, published 2008)
Ends that are not written are not given here.

Test: biological activity of recombinantly produced (1-38)PTH
Conditions: recombinant product from Gen55-Asn-Gly-Pro-(1-38)PTH fusion
Experimental: From a non-optimized 20 litre fermentation a 78 g wet cell pellet with 50% expression of the fusion protein is harvested. Following lysis and centrifugation, 18 g of “90% pure” inclusion bodies are obtained. Following the acid stop step and centrifugation/filtration about 470 mg Gly-pro-PTH are detected. After HPLC on C4-Vydac, 355 mg of peptide are detected, decreasing to 321 mg after SP-Sepharose cation-exchange. Enzymatic removal of the Gly and Pro residues is carried out at 2 mg/ml.

hPTH-(1-38)-OH (SVSEIQLMHNLGKHLNSMERVEWLRKKLQDVHNFVALG-OH; UniProt P01270 32-69, looked up, fragment) [(1-38)PTH, natural human PTH fragment 1-38, produced recombinantly from a gp55 fusion protein in E. coli]
biological activity: fully biologically active
